# Results published in paper PMC2955234 (Investigational New Drugs, 2009).
# Like-named read-outs stand apart in the source and are kept apart here.
# Key:
# [1] = tested on: lymphocyte; experiment: Drug lymphocyte stimulation test in the two patients with erythema multiforme; assay type: cell-based, human; details: both patients with erythema multiforme of cohort 1
# [2] = Dose-limiting toxicity; assay type: in vivo, human; details: in combination with carboplatin AUC 5 mg min mL^−1 and paclitaxel 200 mg/m^2, Japanese patients with advanced NSCLC
# [3] = Pharmacokinetics of sorafenib in plasma; assay type: in vivo; details: human, oral, 400 mg; for Cmax: C max
# [4] = assay type: in vivo, human
# [5] = sorafenib at 400 mg twice daily
# [6] = Cohort 2, dose-adjusted ratio cycle 2 relative to cycle 1
smiles,measurement,setting,value
CNC(=O)c1cc(Oc2ccc(NC(=O)Nc3ccc(Cl)c(C(F)(F)F)c3)cc2)ccn1 [Sorafenib],drug lymphocyte stimulation test result,[1],positive
same,dose of sorafenib confirmed to be feasible,[2],400 mg once daily
same,AUC(0-t),"[3]; AUC0–12, Cohort 1, cycle 1, day 2, 400 mg sd (n = 6), geometric mean (% CV)",18200 ng·h/mL
same,AUC(0-t),"[3]; AUC0–12, Cohort 2, cycle 1, day 2, 400 mg sd (n = 7), geometric mean (% CV)",9000 ng·h/mL
same,AUC(0-t),"[3]; AUC0–12, Cohort 2, cycle 1, day 19, 400 mg od (n = 7), geometric mean (% CV)",24400 ng·h/mL
same,AUC(0-t),"[3]; AUC0–12, Cohort 2, cycle 2, day 2, 400 mg sd (n = 6), geometric mean (% CV)",14600 ng·h/mL
same,Cmax,"[3]; Cohort 1, cycle 1, day 19, 400 mg bid (n = 3), geometric mean (% CV)",4600 ng/mL
same,Cmax,"[3]; Cohort 2, cycle 1, day 2, 400 mg sd (n = 7), geometric mean (% CV)",1200 ng/mL
same,Cmax,"[3]; Cohort 2, cycle 1, day 19, 400 mg od (n = 7), geometric mean (% CV)",3200 ng/mL
same,Cmax,"[3]; Cohort 2, cycle 2, day 19, 400 mg bid (n = 4), geometric mean (% CV)",5900 ng/mL
same,half-life,"[3]; mean t 1/2, on day 19, across cohorts and cycles",20.4 to 26.8 h
same,half-life,"[3]; t 1/2, Cohort 1, cycle 1, day 19, 400 mg bid (n = 3), geometric mean (% CV)",20.4 h
same,half-life,"[3]; t 1/2, Cohort 2, cycle 1, day 19, 400 mg od (n = 7), geometric mean (% CV)",26.8 h
same,half-life,"[3]; t 1/2, Cohort 2, cycle 2, day 19, 400 mg bid (n = 4), geometric mean (% CV)",23.9 h
CC(=O)O[C@H]1C(=O)[C@@]2(C)[C@H]([C@H](OC(=O)c3ccccc3)[C@]3(O)C[C@H](OC(=O)[C@H](O)[C@@H](NC(=O)c4ccccc4)c4ccccc4)C(C)=C1C3(C)C)[C@]1(OC(C)=O)CO[C@@H]1[C@@H](O)[C@@H]2O [6-hydroxy-paclitaxel],increases in the AUC and C max values after sorafenib administration,[4]; [5],not statistically significant
CC(=O)O[C@H]1C(=O)[C@@]2(C)[C@H]([C@H](OC(=O)c3ccccc3)[C@]3(O)C[C@H](OC(=O)[C@H](O)[C@@H](NC(=O)c4ccccc4)c4ccccc4)C(C)=C1C3(C)C)[C@]1(OC(C)=O)CO[C@@H]1C[C@@H]2O [Paclitaxel],AUC Ratio [90% CI],[4]; [6],1.05 [0.88–1.25]
same,C max Ratio [90% CI],[4]; [6],1.19 [0.80–1.77]
same,C max Ratio [90% CI],"[4]; Cohort 2, dose-adjusted ratio cycle 3 relative to cycle 1",1.39 [0.88–2.21]
same,increases in the AUC and C max values after sorafenib administration,[4]; [5],not statistically significant
same,drug lymphocyte stimulation test result,[1],negative
N.N.O=C([O-])C1(C(=O)[O-])CCC1.[Pt+2] [carboplatin],effect of sorafenib on the pharmacokinetics,[4]; [5],no effect
same,drug lymphocyte stimulation test result,[1],negative
